Experimental data from patent publication US11512097B2, “Heterocyclic compounds as Delta-5 desaturase inhibitors and methods of use” (Amgen Inc., priority 2019, dated 2022).

What was measured:
[1] = tested on: Diet-Induced Obese (DIO) mice; assay: Assessment of D5D inhibitor in Diet-Induced Obese (DIO) mice; format: in vivo, Male C57BL/6J DIO mice; details: for Fat mass / Lean mass: day 78, EchoMRI; for Blood glucose: day 81, non-fasted; for AA / DGLA: day 81, non-fasted plasma; for Body weight / Liver weights / epididymal WAT / inguinal WAT / mesenteric WAT: day 84; for Adiponectin / Cholesterol / Insulin / LDL cholesterol / Leptin / Resisten / Triglycerides: day 84, 4-hour fasted plasma
Excerpt: Assessment of D5D Inhibitor in Diet-Induced Obese (DIO) Mice
Male C57BL/6J DIO mice (Jackson Laboratories, Stock No.: 380050) were fed high-fat diet (Research Diets, Inc., D12492) for 12 weeks. All animals were given free access to water and chow. Animals were acclimated to per os dosing for 3 days prior to the start of the experiment. Animals were randomized on body weight, fat mass, lean mass, and blood glucose concentrations in to groups of 8 to 10 animals per group. Animals were twice daily dosed per os with either: vehicle (2% hydroxypropyl methylcellulose and 1% tween 80 in water), Example 2 at 10 mg/kg, or 30 mg/kg (formulated in 2% hydroxypropyl methylcellulose and 1% tween 80 in water), or Example 45 at 3 mg/kg, or 10 mg/kg (formulated in 2% hydroxypropyl methylcellulose and 1% tween 80 in water). Three-day average (Example 2) or daily average (Example 45) food consumption was measured at the indicated times as shown in Table 17 and Table 18. Body composition (EchoMRI) was determined on day 78 for Example 2 and day 22 for Example 45. For Example 2, a non-fasted blood collection was performed on day 81; blood glucose was immediately measured, and plasma samples created from the remaining blood and used to measure DGLA and AA concentrations. On day 84, a 4-hour fasted blood collection was performed, and plasma samples were created from the blood and used to measure cholesterol, triglycerides, low-density lipoprotein (LDL) cholesterol, insulin, and adipokine (adiponectin, leptin, and resistin) levels. For Example 45, 4 hour fasted blood samples were collected on day 25 and blood glucose was measured immediately and the plasma samples created from the remaining blood were used to measure cholesterol, triglycerides, LDL cholesterol, insulin, DGLA and AA concentration. At the end of the studies, liver, epididymal white adipose tissue, inguinal white adipose tissue, mesenteric (only Example 2) white adipose tissue weights were recorded. Data was analyzed using GraphPad Prism v 7.04.
The D5D inhibitor dose-dependently led to weight loss over the course of the experiment (Table 17 and Table 18) compared to vehicle controls. Consistently fat mass was reduced, along with lower inguinal, epididymal and mesenteric white adipose tissue (WAT) weights at necropsy. Blood glucose and plasma insulin levels were both reduced by the D5D inhibitor, along with reductions in plasma cholesterol and triglycerides. Evidence of target engagement was established by observing increases in plasma DGLA and decreases in plasma AA.

[2] = target: T1, Delta-5-Desaturase (D5D), membrane preparations of D5D-overexpressing HEK293 6E cells (Homo sapiens, UniProt O60427); assay: In vitro measurement of Delta-5-Desaturase inhibitory activity using DGLA-CoA and Arachidonyl-CoA mass spectrometric assays; format: biochemical; details: D5D membrane 10 μg/mL, one-hour incubation, average of at least two independent runs
T1 construct: expressed in transfected cells; host or cells: HEK293 6E cells (membrane preparation)
Procedure, shortened: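 Membranes from D5D-overexpressing HEK293 6E cells (10 μg/mL final) in pH 7.5 Tris buffer with MgCl2, octyl glucoside and TCEP were run with substrate solution holding 0.01 mM DGLA, NADH, ATP and CoA for 1 h at ambient temperature. Acetonitrile quench; DGLA-CoA and arachidonyl-CoA measured by RapidFire MRM-MS; 4-parameter IC50, ≥2 runs averaged.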

[3] = Example 2 10 mg/kg twice daily per os
[4] = Example 2 30 mg/kg twice daily per os

T1 sequence (O60427 whole entry, species assumed): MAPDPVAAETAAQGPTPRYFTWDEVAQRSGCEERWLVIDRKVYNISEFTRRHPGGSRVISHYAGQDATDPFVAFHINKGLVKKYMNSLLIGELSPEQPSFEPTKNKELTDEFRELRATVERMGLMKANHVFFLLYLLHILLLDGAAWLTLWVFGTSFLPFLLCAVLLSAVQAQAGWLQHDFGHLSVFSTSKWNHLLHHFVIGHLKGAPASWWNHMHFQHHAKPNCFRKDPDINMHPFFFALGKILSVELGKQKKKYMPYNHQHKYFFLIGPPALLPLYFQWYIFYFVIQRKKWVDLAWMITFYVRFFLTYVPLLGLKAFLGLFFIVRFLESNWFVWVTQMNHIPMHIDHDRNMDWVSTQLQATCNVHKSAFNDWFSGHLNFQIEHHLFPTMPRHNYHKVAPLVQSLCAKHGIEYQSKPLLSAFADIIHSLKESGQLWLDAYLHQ

Cc1nn2c(=O)c(-c3cnn(CC(F)(F)C(F)(F)F)c3)c(C(F)(F)F)nc2s1 [Example 2, 2-methyl-6-[1-(2,2,3,3,3-pentafluoropropyl)-1H-pyrazol-4-yl]-7-(trifluoromethyl)-5H-[1,3,4]thiadiazolo[3,2-a]pyrimidin-5-one]
Fat mass [1, 3]: 11.4 ± 0.6 g
Lean mass [1, 3]: 26.4 ± 0.6 g
Blood glucose [1, 3]: 165.3 ± 4.6 mg/dL
AA [1, 3]: 14.5 ± 0.9 µg/mL
DGLA [1, 3]: 167.8 µg/mL
Body weight [1, 3]: 38.1 ± 1.0 g
Liver weights [1, 3]: 3.0 ± 0.2 g
epididymal WAT [1, 3]: 1.2 ± 0.1 g
inguinal WAT [1, 3]: 1.2 ± 0.1 g
mesenteric WAT [1, 3]: 0.4 ± 0.0 g
Adiponectin [1, 3]: 48.3 ± 17.7 ng/mL
Cholesterol [1, 3]: 224.5 ± 7.3 mg/dL
Insulin [1, 3]: 1.8 ± 0.3 ng/mL
LDL cholesterol [1, 3]: 85.9 ± 3.8 mg/dL
Leptin [1, 3]: 10.7 ± 3.6 ng/mL
Resisten [1, 3]: 0.9 ± 0.2 ng/mL
Triglycerides [1, 3]: 14.3 ± 1.2 mg/dL
Food consumption ([1]; Example 2 10 mg/kg twice daily per os, days 0-2, three-day average): 2.5 ± 0.2 g/day
Food consumption ([1]; Example 2 10 mg/kg twice daily per os, days 70-72, three-day average): 2.5 ± 0.1 g/day
Fat mass [1, 4]: 5.7 ± 0.6 g
Lean mass [1, 4]: 26.1 ± 0.4 g
Blood glucose [1, 4]: 152.1 mg/dL
AA [1, 4]: 10.7 ± 0.6 µg/mL
DGLA [1, 4]: 137.7 µg/mL
Body weight [1, 4]: 32.3 ± 0.9 g
Liver weights [1, 4]: 3.2 ± 0.1 g
epididymal WAT [1, 4]: 0.75 ± 0.1 g
inguinal WAT [1, 4]: 0.5 ± 0.1 g
mesenteric WAT [1, 4]: 0.2 ± 0.0 g
Adiponectin [1, 4]: 51.0 ± 24.4 ng/mL
Cholesterol [1, 4]: 207.5 mg/dL
Insulin [1, 4]: 1.4 ± 0.2 ng/mL
LDL cholesterol [1, 4]: 80.6 ± 3.9 mg/dL
Leptin [1, 4]: 3.2 ± 1.6 ng/mL
Resisten [1, 4]: 0.7 ± 0.2 ng/mL
Triglycerides [1, 4]: 12.8 ± 1.0 mg/dL
Food consumption ([1]; Example 2 30 mg/kg twice daily per os, days 0-2, three-day average): 2.5 ± 0.2 g/day
Food consumption ([1]; Example 2 30 mg/kg twice daily per os, days 70-72, three-day average): 2.7 ± 0.1 g/day
IC50 [2]: 19.6 nM
